{"source": "paper PMC5218480", "about": "(PLoS ONE, 2017)", "system": "MV-4-11 cells", "test": "Gene expression microarray analysis (Affymetrix PrimeView) and GSEA", "format": "cell-based, human", "set-up": "RFU PODN (11730768_x_at) / Fold change /veh PODN (11730768_x_at) / RFU LINC00158 (11744669_a_at) / Fold change /veh LINC00158 (11744669_a_at) / RFU DUSP10 (11751237_a_at) / Fold change /veh DUSP10 (11751237_a_at) / RFU ID3 (11757404_x_at) / Fold change /veh ID3 (11757404_x_at) / RFU PLEKHG5 (11737974_s_at) / Fold change /veh PLEKHG5 (11737974_s_at) / RFU LRRC4B (11730491_at) / Fold change /veh LRRC4B (11730491_at) / RFU GIMAP4 (11747438_a_at) / Fold change /veh GIMAP4 (11747438_a_at) / RFU KRT8 (11758183_x_at) / Fold change /veh KRT8 (11758183_x_at) / RFU CNN1 (11734310_a_at) / Fold change /veh CNN1 (11734310_a_at) / RFU VPS37D (11726825_at) / Fold change /veh VPS37D (11726825_at) / RFU C10orf10 (11716522_x_at) / Fold change /veh C10orf10 (11716522_x_at) / RFU KIR2DL2 /// KIR2DL4 /// KIR2DL5A /// KIR2DL5B /// KIR2DS1 /// KIR2DS2 /// KIR2DS3 /// KIR2DS4 /// KIR3DL3 /// KIR3DL3 /// KIR3DS1 (11738374_at) / Fold change /veh KIR2DL2 /// KIR2DL4 /// KIR2DL5A /// KIR2DL5B /// KIR2DS1 /// KIR2DS2 /// KIR2DS3 /// KIR2DS4 /// KIR3DL3 /// KIR3DL3 /// KIR3DS1 (11738374_at) / RFU C1QL1 (11718748_at) / Fold change /veh C1QL1 (11718748_at) / RFU TMPRSS4 (11747572_a_at) / Fold change /veh TMPRSS4 (11747572_a_at) / RFU HAMP (11756126_x_at) / Fold change /veh HAMP (11756126_x_at) / RFU RNFT2 (11725882_a_at) / Fold change /veh RNFT2 (11725882_a_at) / RFU NR4A2 (11747474_a_at) / Fold change /veh NR4A2 (11747474_a_at) / RFU ABCC12 (11746883_a_at) / Fold change /veh ABCC12 (11746883_a_at) / RFU TMEM136 (11760407_x_at) / Fold change /veh TMEM136 (11760407_x_at) / RFU CLDN22 /// WWC2 (11732394_at) / Fold change /veh CLDN22 /// WWC2 (11732394_at) / RFU HLA-DPB1 (11760878_x_at) / Fold change /veh HLA-DPB1 (11760878_x_at) / RFU SPINT1 (11716480_a_at) / Fold change /veh SPINT1 (11716480_a_at) / RFU GAP43 (11754022_s_at) / Fold change /veh GAP43 (11754022_s_at) / RFU A4GNT (11735810_at) / Fold change /veh A4GNT (11735810_at) / RFU PRB3 (11715151_x_at) / Fold change /veh PRB3 (11715151_x_at) / RFU TUBB4B (11761932_at) / Fold change /veh TUBB4B (11761932_at) / RFU CAPN14 (11732068_a_at) / Fold change /veh CAPN14 (11732068_a_at) / RFU TMCC2 (11721928_a_at) / Fold change /veh TMCC2 (11721928_a_at) / RFU IRGQ (11745062_a_at) / Fold change /veh IRGQ (11745062_a_at) / RFU FAM174B (11720279_a_at) / Fold change /veh FAM174B (11720279_a_at) / RFU TMPRSS4 (11748680_a_at) / Fold change /veh TMPRSS4 (11748680_a_at) / RFU FAM212B (11763350_a_at) / Fold change /veh FAM212B (11763350_a_at) / RFU PLEKHG5 (11743358_a_at) / Fold change /veh PLEKHG5 (11743358_a_at) / RFU ZSCAN30 (11745921_a_at) / Fold change /veh ZSCAN30 (11745921_a_at) / RFU CMKLR1 (11741424_a_at) / Fold change /veh CMKLR1 (11741424_a_at) / RFU LOC101060620 /// MAPK8IP1 (11723275_at) / Fold change /veh LOC101060620 /// MAPK8IP1 (11723275_at) / RFU SPTSSB (11747773_x_at) / Fold change /veh SPTSSB (11747773_x_at) / RFU PRSS12 (11739890_at) / Fold change /veh PRSS12 (11739890_at) / RFU BIN1 (11741810_x_at) / Fold change /veh BIN1 (11741810_x_at) / RFU WNT11 (11732464_a_at) / Fold change /veh WNT11 (11732464_a_at) / RFU C10orf10 (11716521_a_at) / Fold change /veh C10orf10 (11716521_a_at) / RFU C5orf56 (11738089_at) / Fold change /veh C5orf56 (11738089_at) / RFU CYB561 (11721691_x_at) / Fold change /veh CYB561 (11721691_x_at) / RFU ANKRD19P (11752326_a_at) / Fold change /veh ANKRD19P (11752326_a_at) / RFU OR2T12 /// OR2T33 /// OR2T8 (11738714_s_at) / Fold change /veh OR2T12 /// OR2T33 /// OR2T8 (11738714_s_at) / RFU VCAN (11748164_a_at) / Fold change /veh VCAN (11748164_a_at) / RFU JSRP1 (11732532_at) / Fold change /veh JSRP1 (11732532_at) / RFU KRTAP10-11 (11738290_x_at) / Fold change /veh KRTAP10-11 (11738290_x_at) / RFU MYO3A (11730013_a_at) / Fold change /veh MYO3A (11730013_a_at) / RFU EBF3 (11725865_a_at) / Fold change /veh EBF3 (11725865_a_at) / RFU CAMK2N1 (11719241_x_at) / Fold change /veh CAMK2N1 (11719241_x_at) / RFU C5orf56 (11738088_a_at) / Fold change /veh C5orf56 (11738088_a_at) / RFU OLFML3 (11715873_a_at) / Fold change /veh OLFML3 (11715873_a_at) / RFU LOC100653217 /// NTM (11731650_a_at) / Fold change /veh LOC100653217 /// NTM (11731650_a_at) / RFU MAPK11 (11762145_a_at) / Fold change /veh MAPK11 (11762145_a_at) / RFU FIZ1 (11724087_x_at) / Fold change /veh FIZ1 (11724087_x_at) / RFU OASL (11726364_x_at) / Fold change /veh OASL (11726364_x_at) / RFU SOX15 (11748057_x_at) / Fold change /veh SOX15 (11748057_x_at) / RFU CD79A (11719716_a_at) / Fold change /veh CD79A (11719716_a_at) / RFU HIST1H1D (11736915_at) / Fold change /veh HIST1H1D (11736915_at) / RFU CASKIN2 (11723855_a_at) / Fold change /veh CASKIN2 (11723855_a_at) / RFU LOC730098 (11760151_x_at) / Fold change /veh LOC730098 (11760151_x_at) / RFU OR4N2 (11742367_at) / Fold change /veh OR4N2 (11742367_at) / RFU PRRT2 (11749266_a_at) / Fold change /veh PRRT2 (11749266_a_at) / RFU SNX32 (11753110_a_at) / Fold change /veh SNX32 (11753110_a_at) / RFU CDHR5 (11726645_a_at) / Fold change /veh CDHR5 (11726645_a_at) / RFU RCAN1 (11760418_a_at) / Fold change /veh RCAN1 (11760418_a_at) / RFU FAM167A (11723789_a_at) / Fold change /veh FAM167A (11723789_a_at) / RFU FAM26E (11764081_at) / Fold change /veh FAM26E (11764081_at) / RFU ISYNA1 (11749810_s_at) / Fold change /veh ISYNA1 (11749810_s_at) / RFU ACY1 (11761880_at) / Fold change /veh ACY1 (11761880_at) / RFU 11764098_at / Fold change /veh 11764098_at / RFU SAMD14 (11745864_x_at) / Fold change /veh SAMD14 (11745864_x_at) / RFU NPB (11741838_a_at) / Fold change /veh NPB (11741838_a_at) / RFU TMPRSS6 (11731388_a_at) / Fold change /veh TMPRSS6 (11731388_a_at) / RFU KRTAP10-2 (11738614_at) / Fold change /veh KRTAP10-2 (11738614_at) / RFU ARHGAP8 /// PRR5-ARHGAP8 (11727945_x_at) / Fold change /veh ARHGAP8 /// PRR5-ARHGAP8 (11727945_x_at) / RFU KRTAP5-7 /// NADSYN1 (11734609_at) / Fold change /veh KRTAP5-7 /// NADSYN1 (11734609_at) / RFU RASL12 (11751679_a_at) / Fold change /veh RASL12 (11751679_a_at) / RFU CDKN2B (11736163_a_at) / Fold change /veh CDKN2B (11736163_a_at) / RFU PRF1 (11729649_at) / Fold change /veh PRF1 (11729649_at) / RFU, ZNF638 /// ZNF638-IT1 / Fold change vs veh, ZNF638 /// ZNF638-IT1 / RFU, PANK3 / Fold change vs veh, PANK3 / RFU, SH3YL1 / Fold change vs veh, SH3YL1 / RFU, ZEB2 / Fold change vs veh, ZEB2 / RFU, NRIP1 / Fold change vs veh, NRIP1 / RFU, PTTG1IP / Fold change vs veh, PTTG1IP / RFU, CAPN2 / Fold change vs veh, CAPN2 / RFU, MED14 / Fold change vs veh, MED14 / RFU, SNORA58 / Fold change vs veh, SNORA58 / RFU, C1orf63 / Fold change vs veh, C1orf63 / RFU, LRRFIP1 / Fold change vs veh, LRRFIP1 / RFU, NDUFAF7 / Fold change vs veh, NDUFAF7 / RFU, SLC12A2 / Fold change vs veh, SLC12A2 / RFU, IBTK / Fold change vs veh, IBTK / RFU, ESF1 / Fold change vs veh, ESF1 / Fold change vs veh, TMEM50B / RFU, TAOK1 / Fold change vs veh, TAOK1 / RFU, ACBD3 / Fold change vs veh, ACBD3 / RFU, TMA16 / Fold change vs veh, TMA16 / RFU, RWDD3 / Fold change vs veh, RWDD3 / RFU, BCAT1 / Fold change vs veh, BCAT1 / RFU, EDEM3 / Fold change vs veh, EDEM3 / RFU, TMEM33 / Fold change vs veh, TMEM33 / RFU, WDR75 / Fold change vs veh, WDR75 / RFU, AHCTF1 / Fold change vs veh, AHCTF1 / RFU, TFRC / Fold change vs veh, TFRC / RFU, ZDHHC17 / Fold change vs veh, ZDHHC17 / RFU, NOM1 / Fold change vs veh, NOM1 / RFU, ARL8B / Fold change vs veh, ARL8B / RFU, ZBTB11 / Fold change vs veh, ZBTB11 / RFU, TAMM41 / Fold change vs veh, TAMM41 / RFU, KIAA1704 /// LOC100996395 / Fold change vs veh, KIAA1704 /// LOC100996395 / RFU, ING1 / Fold change vs veh, ING1 / RFU, TRMT61B / Fold change vs veh, TRMT61B / RFU, FUBP3 / Fold change vs veh, FUBP3 / RFU, TP53 / Fold change vs veh, TP53 / RFU, TNKS2 / Fold change vs veh, TNKS2 / RFU, ZFP14 / Fold change vs veh, ZFP14 / RFU, ACTR2 / Fold change vs veh, ACTR2 / RFU, PPP3R1 / Fold change vs veh, PPP3R1 / RFU, PIK3R1 / Fold change vs veh, PIK3R1 / RFU, HNRNPA1 / Fold change vs veh, HNRNPA1 / RFU, RNF170 / Fold change vs veh, RNF170 / RFU, ZNF28 / Fold change vs veh, ZNF28 / RFU, RNGTT / Fold change vs veh, RNGTT / RFU, OGT / Fold change vs veh, OGT / RFU, BRD1 / Fold change vs veh, BRD1 / RFU, MARS / Fold change vs veh, MARS / RFU, ZNF655 / Fold change vs veh, ZNF655 / RFU, FAHD1 / Fold change vs veh, FAHD1 / RFU, BDP1 / Fold change vs veh, BDP1 / RFU, LRRCC1 / Fold change vs veh, LRRCC1 / RFU, ARID1A / Fold change vs veh, ARID1A / RFU, ZNF146 / Fold change vs veh, ZNF146 / RFU, ZNF330 / Fold change vs veh, ZNF330 / RFU, GPN3 / Fold change vs veh, GPN3 / RFU, C9orf123 / Fold change vs veh, C9orf123 / RFU, N4BP2L2 / Fold change vs veh, N4BP2L2 / RFU, ARFIP1 / Fold change vs veh, ARFIP1 / RFU, FAM179B / Fold change vs veh, FAM179B / RFU, BCL10 / Fold change vs veh, BCL10 / RFU, UHRF1BP1L / Fold change vs veh, UHRF1BP1L / RFU, BET1 / Fold change vs veh, BET1 / RFU, CNOT2 / Fold change vs veh, CNOT2 / RFU, ZNF268 / Fold change vs veh, ZNF268 / Fold change vs veh, ZNF507 / RFU, DGCR2 / Fold change vs veh, DGCR2 / RFU, WDSUB1 / Fold change vs veh, WDSUB1 / Fold change vs veh, HSP90B1 /// MIR3652 / RFU, ADSS / Fold change vs veh, ADSS / RFU, GK / Fold change vs veh, GK / RFU, ZNF148 / Fold change vs veh, ZNF148 / RFU, TAF9 / Fold change vs veh, TAF9 / RFU, SLC1A5 / Fold change vs veh, SLC1A5 / RFU, SLMO2 / Fold change vs veh, SLMO2 / RFU, ABCC4 / Fold change vs veh, ABCC4 / RFU, LOC101060439 /// RAP1B / Fold change vs veh, LOC101060439 /// RAP1B / RFU, RFX7 / Fold change vs veh, RFX7 / RFU, GTPBP10 / Fold change vs veh, GTPBP10 / RFU, CNEP1R1 / Fold change vs veh, CNEP1R1 / RFU, BIVM-ERCC5 /// ERCC5 / Fold change vs veh, BIVM-ERCC5 /// ERCC5 / RFU, ILF3 / Fold change vs veh, ILF3 / RFU 11762660_at / Fold change /veh 11762660_at / RFU VCAN (11757783_s_at) / Fold change /veh VCAN (11757783_s_at) / RFU DDX43 (11728927_at) / Fold change /veh DDX43 (11728927_at) / RFU KRT8 (11758188_x_at) / Fold change /veh KRT8 (11758188_x_at) / RFU NKD1 (11759106_at) / Fold change /veh NKD1 (11759106_at) / RFU SRD5A1 (11742802_a_at) / Fold change /veh SRD5A1 (11742802_a_at) / RFU TPSAB1 /// TPSB2 (11721975_s_at) / Fold change /veh TPSAB1 /// TPSB2 (11721975_s_at) / RFU GSTM3 (11746129_a_at) / Fold change /veh GSTM3 (11746129_a_at) / RFU IL23R (11737362_x_at) / Fold change /veh IL23R (11737362_x_at) / RFU TMEM51 (11727254_a_at) / Fold change /veh TMEM51 (11727254_a_at) / RFU PIWIL2 (11732686_x_at) / Fold change /veh PIWIL2 (11732686_x_at) / RFU ORM1 (11744905_x_at) / Fold change /veh ORM1 (11744905_x_at) / RFU CCDC152 (11743942_at) / Fold change /veh CCDC152 (11743942_at) / RFU ECM1 (11717891_a_at) / Fold change /veh ECM1 (11717891_a_at) / RFU IL23R (11748794_a_at) / Fold change /veh IL23R (11748794_a_at) / RFU TNFAIP8L3 (11732012_x_at) / Fold change /veh TNFAIP8L3 (11732012_x_at) / RFU MBOAT4 (11741988_at) / Fold change /veh MBOAT4 (11741988_at) / RFU 11764193_at / Fold change /veh 11764193_at / RFU TMEM53 (11763286_at) / Fold change /veh TMEM53 (11763286_at) / RFU MAGEB2 (11727129_at) / Fold change /veh MAGEB2 (11727129_at) / RFU TMEM200A (11744735_a_at) / Fold change /veh TMEM200A (11744735_a_at) / RFU CCDC152 (11751479_a_at) / Fold change /veh CCDC152 (11751479_a_at) / RFU FAM211A (11726209_a_at) / Fold change /veh FAM211A (11726209_a_at) / RFU RGS16 (11746705_a_at) / Fold change /veh RGS16 (11746705_a_at) / RFU VCAN (11755009_s_at) / Fold change /veh VCAN (11755009_s_at) / RFU RHOB (11743442_s_at) / Fold change /veh RHOB (11743442_s_at) / RFU RGS16 (11720943_a_at) / Fold change /veh RGS16 (11720943_a_at) / RFU RGS16 (11720944_at) / Fold change /veh RGS16 (11720944_at) / RFU, VPS4B / Fold change vs veh, VPS4B / RFU, CREB1 / Fold change vs veh, CREB1 / RFU, DNAJC13 / Fold change vs veh, DNAJC13 / RFU, GNAQ / Fold change vs veh, GNAQ / RFU, CDK5R1 / Fold change vs veh, CDK5R1 / RFU, ZRANB3 / Fold change vs veh, ZRANB3 / RFU, CUL4A / Fold change vs veh, CUL4A / RFU, CCNY / Fold change vs veh, CCNY / RFU, UFL1 / Fold change vs veh, UFL1 / RFU, COG3 / Fold change vs veh, COG3 / RFU, DIAPH2 / Fold change vs veh, DIAPH2 / RFU, SKA2 / Fold change vs veh, SKA2 / RFU, AFF3 / Fold change vs veh, AFF3 / RFU, LMF1 / Fold change vs veh, LMF1 / RFU, IPO11 / Fold change vs veh, IPO11 / RFU, DFFB / Fold change vs veh, DFFB / RFU, FOXP1 / Fold change vs veh, FOXP1 / RFU, CARD8 / Fold change vs veh, CARD8 / RFU, STRN3 / Fold change vs veh, STRN3 / RFU, ADK / Fold change vs veh, ADK / RFU, RASSF2 / Fold change vs veh, RASSF2 / RFU, WIPF1 / Fold change vs veh, WIPF1 / RFU, LARP1B / Fold change vs veh, LARP1B / RFU, RASA1 / Fold change vs veh, RASA1 / RFU, RB1 / Fold change vs veh, RB1 / RFU, PPFIA1 / Fold change vs veh, PPFIA1 / RFU, MAT2A / Fold change vs veh, MAT2A / RFU, CCT5 / Fold change vs veh, CCT5 / RFU, WDR92 / Fold change vs veh, WDR92 / RFU, CUX1 / Fold change vs veh, CUX1 / RFU, TTC7A / Fold change vs veh, TTC7A / RFU, TMEM135 / Fold change vs veh, TMEM135 / RFU, DEPTOR / Fold change vs veh, DEPTOR / RFU, CPM / Fold change vs veh, CPM / RFU, DNAJB6 / Fold change vs veh, DNAJB6 / RFU, CACNA2D3 / Fold change vs veh, CACNA2D3 / RFU, DTX4 / Fold change vs veh, DTX4 / RFU, TFCP2 / Fold change vs veh, TFCP2 / RFU, GMCL1 /// GMCL1P1 / Fold change vs veh, GMCL1 /// GMCL1P1 / RFU, AEBP2 / Fold change vs veh, AEBP2 / RFU, SNHG1 /// SNORD22 /// SNORD25 /// SNORD26 /// SNORD27 /// SNORD28 /// SNORD29 /// SNORD31 / Fold change vs veh, SNHG1 /// SNORD22 /// SNORD25 /// SNORD26 /// SNORD27 /// SNORD28 /// SNORD29 /// SNORD31 / Fold change (Aza/veh), C12orf56 (ProbeSet 11735607_a_at) / Fold change (ACY-1035/veh), C12orf56 (ProbeSet 11735607_a_at) / Fold change (Aza/veh), FGFR1OP (ProbeSet 11751329_s_at) / Fold change (ACY-1035/veh), FGFR1OP (ProbeSet 11751329_s_at) / Fold change (Aza/veh), VPS36 (ProbeSet 11739960_a_at) / Fold change (ACY-1035/veh), VPS36 (ProbeSet 11739960_a_at) / RFU SYPL1 (11715823_x_at) / Fold change /veh SYPL1 (11715823_x_at) / RFU IGFBP7 (11715501_s_at) / Fold change /veh IGFBP7 (11715501_s_at) / RFU REEP3 (11722064_at) / Fold change /veh REEP3 (11722064_at) / RFU IGLL1 (11728026_x_at) / Fold change /veh IGLL1 (11728026_x_at): dose or concentration left out as unconfirmed", "details": "MV-4-11 cells, 48 hours"}
{"compound": "Nc1ccc(-c2cccs2)cc1NC(=O)c1ccc2c(c1)cc(C1CC1)n2CCN1CCOCC1", "note": "[ACY-1035]", "values": [{"measurement": "RFU C1QL1 (11718748_at)", "result": 611.11, "unit": "RFU"}]}
